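Cultured in 96-well plates, cells were exposed to test compound for 48 hours across five concentrations. TGI marks complete inhibition of growth.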 A value given as a limit tells only on which side of the number the result lay.

Holding throughout (assay): inhibition of tumour cell growth, NCI panel, 48 h
In test [1] the test system is KM20L2 colon.
Test [2] deals with CCRF-CEM leukemia.
The subject of test [3] is NCI-H23 lung.
Test [4] has as its system UACC-257 melanoma.
Test [5] relates to SK-MEL-28 melanoma.
The test system of test [6] is UACC-62 melanoma.
The subject of test [7] is OVCAR-3 ovarian.
In test [8] the test system is U251 CNS.
The subject of test [9] is SNB-19 CNS.
Test [10] has as its system A549 NSCLC.
Test [11] concerns KM12 colon.
The subject of test [12] is HCT-116 colon.
The test system of test [13] is K-562 leukemia.
The subject of test [14] is RPMI-8226 leukemia.
The test system of test [15] is IGROV1 ovarian.
In test [16] the test system is DMS 273 small cell lung.
For test [17], the system named is HOP-62 NSCLC.
The subject of test [18] is MOLT-4 leukemia.
Test [19] relates to NCI-H226 lung.
In test [20] the test system is TK-10 renal.

For the compound `C=CCc1cccc(/C=N\N=C(/N)NO)c1O`, the TGI in test [1] is 31.8 µM; in test [2], greater than 27 µM; in test [3] it was 26.5 µM; in [4] it was 30.6 µM; in [5], greater than 100 µM; in test [6], 7.11 µM. Moreover, the TGI in test [7] was greater than 25.2 µM; in [8] it was greater than 88.3 µM; in test [9], greater than 94.4 µM; in test [10], 29.1 µM; in [11], greater than 80.9 µM; in test [12], greater than 79.6 µM. In addition, the TGI in [13] is greater than 47.9 µM; in test [14] it was 14.6 µM; in test [15] it was greater than 74.9 µM; in [16] it was 16.5 µM; in test [17], 7.08 µM; in [18], greater than 26.8 µM. The same compound showed a TGI in [19] of 11.5 µM.
As for `N#CCCN(CCC#N)c1ccc(/C=C2\N=C(c3cc([N+](=O)[O-])ccc3Cl)N(NC(=O)CC(=O)Nc3ccccc3Cl)C2=O)cc1`, the TGI in test [1] was 34.5 µM; in [2] it was greater than 100 µM; in [3] it was greater than 100 µM; in test [5] it was greater than 100 µM; in [6], greater than 100 µM; in test [7] it was greater than 100 µM. The TGI in test [8], in test [9], in test [10], in test [11], in test [12] and in [13] was greater than 100 µM each time. Further, the TGI in [20], in test [14], in test [15], in test [16], in [17] and in test [18] was greater than 100 µM in each case. The compound also displayed a TGI in [19] of 35.6 µM.
Consider `O=c1nc2sc3ccc4ccccc4c3n2[nH]c1=O`, for which the TGI in [1] is 99 µM; in test [2], greater than 100 µM; in test [3] it was greater than 100 µM; in test [5], greater than 100 µM; in [6] it was greater than 100 µM; in test [7], greater than 100 µM. Further, the TGI in [8], in test [9], in test [10], in [11], in test [12] and in test [13] was greater than 100 µM each time. The TGI is greater than 100 µM in test [20]; greater than 100 µM in test [15]; greater than 100 µM in test [16]; 71.5 µM in test [17]; greater than 100 µM in test [18]; greater than 100 µM in test [19].
For `CCCOC1OC(CS(=O)(=O)O)C(O)C(O)C1O` (stereo not drawn), the TGI in test [2], in test [3], in test [4], in test [5], in test [6] and in [7] was greater than 100 µM in each case. The TGI in test [8], in [9], in test [11], in test [12], in test [13] and in [20] was greater than 100 µM each time. Besides, the TGI in [14], in test [15], in test [17], in test [18] and in test [19] was greater than 100 µM each time.
On to `CCCCCCCCCCCCCCCC(=O)OC1C(O)C(CO)OC(OC)C1NC(=O)N(CCCl)N=O` (stereo not drawn), for which the TGI in test [1] came to 32.4 µM; in [3], 21 µM; in test [4] it was 31.5 µM; in [5] it was 27.5 µM; in test [6], 17.1 µM; in [7], 33.4 µM. The TGI in test [8] was determined as 19.9 µM; in test [9] it was 23.8 µM; in [10], 23.8 µM; in test [11], 35.1 µM; in test [12], 30 µM; in test [13], 66.1 µM. In addition, the TGI in test [20] was 28.9 µM; in [14], greater than 100 µM; in test [15], 38.3 µM; in test [16], 29.4 µM; in test [17], 32.3 µM; in [18], 23 µM. This compound also came in with a TGI in [19] of 33.7 µM.
Take `CCOC(=O)NC(Nc1ccc(Cl)cn1)(C(F)(F)F)C(F)(F)F`: the TGI in test [2], in test [3], in test [4], in [5], in test [6] and in test [7] was greater than 100 µM throughout. Further, the TGI in test [8], in test [9], in [11], in test [12], in [13] and in [20] was greater than 100 µM in each case. In addition, the TGI in test [14], in test [17], in [18] and in test [19] was greater than 100 µM throughout.

The record behind these values is PubChem BioAssay (NCI).
